“Also recorded” adds a separate entry of the source.
Assays:
MRL-(Fas)lpr mice [1] = assay: Experimental lupus nephritis, late onset of treatment week 15 to 19; assay type: in vivo; conditions: late onset week 15-19
Procedure: To further assess the potency of Cat-S inhibition to control advanced lupus nephritis we performed identical experiments with the highest dose of RO5459072 and MMF, which were not initiated before week 15 of age and continued for only 4 weeks and terminated again at week 19.
(§1) Four-week-old female MRL-(Fas)lpr mice were purchased from Harlan Winkelmann (Borchen, Germany) and kept under pathogen-free conditions in a 12 hour light and dark cycle with free access to food and water. All animal experiments were performed in accordance with the European protection laws of animal welfare, and with approval by the local government authorities Regierung von Oberbayern (reference number: 55.2.1-54-2532.2-11-12). At 11 or 15 weeks of age only mice with proteinuria (Albustix, Bayer AG, Leverkusen, Germany) were randomized into five different groups (n = 10) receiving different medicated diets: Three groups were fed with chow mixed with either 3, 10 or 30 mg/kg/day RO5459072, another group’s chow was mixed with 100 mg/kg/day mycophenolate mofetil (MMF), and one group received a standard diet (vehicle). The dose of MMF was chosen according to several studies reporting strong efficacy on SLE and lupus nephritis in MRL-(Fas)lpr mice[24]–[26]. […] At the age of 19 weeks all mice were sacrificed by cervical dislocation. Blood and urine samples were collected at different time points as indicated. In other experiments 7 week old female MRL-(Fas)lpr mice were randomized into three groups (n = 3) to receive a single intravenous injection of 10 µg sterile recombinant Cat-S and one group receiving vehicle (100 µl sterile PBS). One of the Cat-S groups was pretreated with 30 mg/kg/day RO5459072 starting one week prior to Cat-S injection; another group was pretreated with a total of four daily intra-peritoneal injections of the PAR-2 inhibitor GB83 (10 mg/kg).
Kidney tissue samples were collected from all mice and fixed overnight in 4% buffered formalin. Subsequently the fixed tissue samples were embedded in paraffin and cut into 4 µm thick serial sections. Kidney paraffin sections were stained with periodic acid-Schiff (PAS) reaction using standardized protocols as described. Scoring of lupus nephritis activity and chronicity indices was performed according to human lupus nephritis, [43]. Methenamine silver staining was performed on paraffin embedded kidney sections and semiquantitatively scored form 0–3 by a blinded observer. For immunostaining the following primary antibodies were used: anti-mouse CD3 (Abcam, Cambridge, UK), complement C3c (Biobyt Ltd, Cambridge, UK), CD31 (Dianova GmbH, Hamburg, Germany), WT1 (Santa Cruz Biotechnology, Dallas, Texas) and nephrin (Acris Antibodies, San Diego, CA). The immunostaining for C3c and CD31 were analyzed using the ImageJ software by measuring positively stained area and dividing it by the total area of the glomerulus and reported as percentage of +ve area. Sections stained for WT1/nephrin and CD3 were evaluated by counting positive cells per glomerulus. All the morphometric analysis were carried out in a blinded fashion.
(§2) Urinary albumin/creatinine ratios were determined using the Mouse Albumin ELISA Quantitation set (Bethyl Laboratories, Montgomery, TX) and the Creatinine FS kit (DiaSys Diagnostic Systems, Holzheim, Germany)[44]. BUN levels were determined in plasma samples using a Urea FS kit (DiaSys Diagnostic Systems). Mouse IgM, IgG and its isotypes IgG1, IgG2a and IgG2b plasma levels were measured using ELISA Sets (Bethyl Laboratories) at a plasma dilution of 1:1,000 to 1:100,000. Double-stranded DNA IgG and IgM antibodies were quantified as described. Briefly, 96 well Nunc-Immuno plates (Thermo Fisher Scientific, Roskilde, Denmark) were coated with poly-L-lysine (1:1 diluted with PBS) and incubated for two hours. After washing the plates, the plates were coated with 1 µg/ml mouse tail dsDNA sparing the wells for standards, which were coated with anti-mIgG and anti-mIgM (Bethyl Laboratories). […]

MRL-(Fas)lpr mice [2] = assay: Intravenous recombinant Cat-S injection: albuminuria and glomerular ultrastructure (TEM); assay type: in vivo; conditions: 10 µg recombinant Cat-S i.v.
Procedure: as §1
as §2, with “[…] Absorbance was measured at 450 nm using a Tecan Microplate Reader (Biotek, Winnoski, VT). Indirect immunofluorescence was used to quantify ANA in” for “After washing the plates, the plates were coated with 1 µg/ml”, “plasma.” for “tail dsDNA sparing the wells for standards, which were coated with anti-mIgG and anti-mIgM (Bethyl Laboratories).”
Mouse kidney tissue was fixed in 2% paraformaldehyde/2% glutaraldehyde and 0.1M sodium phosphate buffer (pH 7.4) for 24 hours and processed as described. Samples were analyzed with a 1200EX electron microscope (JEOL, Tokyo, Japan).

[3] = test system: diversity panel consisting of nearly 100 receptor binding and enzymatic assays; assay: Diversity panel of receptor binding and enzymatic assays; conditions: 10 µM concentration; data not shown

Cn1cc(-c2ccc(S(=O)(=O)[C@@H]3C[C@@H](C(=O)NC4(C#N)CC4)N(C(=O)C4(C(F)(F)F)CC4)C3)c(C(F)(F)F)c2)cn1 [RO5459072]
lupus nephritis disease activity index (MRL-(Fas)lpr mice [1]): significantly reduced
lupus nephritis disease chronicity index (MRL-(Fas)lpr mice [1]): failed to significantly suppress
proteinuria and BUN at week 19 compared to control mice (MRL-(Fas)lpr mice [1]): significantly reduced
plasma IgG and its isotypes and anti-dsDNA IgG (MRL-(Fas)lpr mice [1]; highest dose of RO5459072, MMF): significantly suppressed
Cat-S-induced albuminuria (MRL-(Fas)lpr mice [2]; 30 min, RO5459072 30 mg/kg/day pretreatment, GB83 10 mg/kg i.p.): completely prevented; also recorded: entirely blocked
Cat-S-induced glomerular endothelial cell injury (TEM) (MRL-(Fas)lpr mice [2]; 24 h): completely prevented
inhibition on diversity panel [3]: ≤ 30%
